Measured values taken from patent US3985732A, “1,2,3,11A-Tetrahydro-10-methyl-5H-pyrrolo[2,1-c][1,4]ben zodiazepin-5,11(10H)-diones” (American Cyanamid Company, priority 1975, dated 1976).

Test system: clonic seizures caused by pentylenetetrazole in rats
Assay: Protection against clonic seizures caused by pentylenetetrazole in rats (oral)
Type: in vivo, rat
Conditions: for effectiveness as anxiolytic agents versus closest prior art compound (respective dextrorotatory and racemic forms without 10-methyl): pentylenetetrazole test in rats, compared with Compounds 4 and 5
Procedure: The anti-anxiety properties of the compounds of the present invention have been established in a test which indicates anxiolytic activity by a measure of protection from convulsions resulting from the administration of pentylenetetrazol. Graded dose levels of the dextro and racemic forms of the 1,2,3,11a-tetrahydro-10-methyl-5H-pyrrolo[2,1-c][1,4]benzodiazepin-5,11(10H)-diones are administered orally, in a 2% starch vehicle, to groups of at least 5 rats. At the estimated time of peak effect, the rats are treated intravenously with pentylenetetrazole at a dose of 21 to 23 mg/kg of body weight. This dose is estimated to cause clonic seizures in 99% of unprotected rats. The effective dose of the test compound for protection of 50% of the animals is calculated by the method of J. T. Litchfield and F. Wilcoxon, Journal of Pharmacology and Experimental Therapeutics, 96, 99 (1949). The results are given in the table which follows in comparison with Librium (chlordiazepoxide), Valium (diazepam) and the dextro and racemic forms of 1,2,3,11a-tetrahydro-5H-pyrrolo-[2,1-c] [1,4]benzodiazepin-5,11(10H)-dione (U.S. Pat. No. 3,732,212) all of which were tested in exactly the same manner. It has been reported [R. T. Hill and D. H. Tedeschi, "Animal Testing and Screening Procedures in Evaluating Psychotropic Drugs" in An Introduction to Psychopharmacology, Eds. R. R. Rech and K. E. Moore, Raven Press, New York, pp. 237-288 (1971)] that there is a high degree of correlation between antagonism of pentylenetetrazole seizures in rats and antianxiety effects in higher warm-blooded animals.

## CN1C(=O)C2CCCN2C(=O)c2ccccc21 (racemic) [Compound 3, Racemic (DL) 1,2,3,11a-Tetrahydro-10-methyl-5H-pyrrolo[2,1-c][1,4]benzodiazepin-5,11(10H)-dione]
  effectiveness as anxiolytic agents versus closest prior art compound (respective dextrorotatory and racemic forms without 10-methyl): far more effective

## CN1C(=O)[C@@H]2CCCN2C(=O)c2ccccc21 [Compound 2, Dextrorotatory 1,2,3,11a-Tetrahydro-10-methyl-5H-pyrrolo[2,1-c][1,4]benzodiazepin-5,11(10H)-dione]
  effectiveness as anxiolytic agents versus closest prior art compound (respective dextrorotatory and racemic forms without 10-methyl): far more effective

## CN1C(=O)[C@@H]2CCCN2C(=O)c2cc(F)ccc21 [Dextrorotatory 7-Fluoro-1,2,3,11a-tetrahydro-10-methyl-5H-pyrrolo[2,1-c][1,4]benzodiazepin-5,11(10H)-dione]
Rattus norvegicus, 2% starch vehicle, at least 5 rats per group, pentylenetetrazole 21 to 23 mg/kg intravenously at estimated time of peak effect, Litchfield and Wilcoxon, read-out: Medium Effective Oral Dose ED50, protection against clonic seizures caused by pentylenetetrazole
  ED50: 4 mg/kg
  effectiveness as anxiolytic agents versus closest prior art compound (respective dextrorotatory and racemic forms without 10-methyl): far more effective
